As a reminder, the EC50 is the concentration giving half of the maximal effect. Low values mean a more potent agent, high ones a less potent agent. In general, Ki refers to the dissociation constant of the complex between target and ligand, obtained from inhibition or displacement.

Results on eight compounds are retold here after ChEMBL document CHEMBL1135927, “Vinyl sulfide cyclized analogues of angiotensin II with high affinity and full agonist activity at the AT(1) receptor” (J Med Chem, 2002).

The species named for test [1] is Oryctolagus cuniculus. Briefly: Agonistic activity in vascular contractility study on rabbit aorta. The format is functional, organism-based.
The target of test [2] is T1, Type-1 angiotensin II receptor B (Rattus norvegicus, UniProt P29089).
T1 sequence (P29089 whole entry): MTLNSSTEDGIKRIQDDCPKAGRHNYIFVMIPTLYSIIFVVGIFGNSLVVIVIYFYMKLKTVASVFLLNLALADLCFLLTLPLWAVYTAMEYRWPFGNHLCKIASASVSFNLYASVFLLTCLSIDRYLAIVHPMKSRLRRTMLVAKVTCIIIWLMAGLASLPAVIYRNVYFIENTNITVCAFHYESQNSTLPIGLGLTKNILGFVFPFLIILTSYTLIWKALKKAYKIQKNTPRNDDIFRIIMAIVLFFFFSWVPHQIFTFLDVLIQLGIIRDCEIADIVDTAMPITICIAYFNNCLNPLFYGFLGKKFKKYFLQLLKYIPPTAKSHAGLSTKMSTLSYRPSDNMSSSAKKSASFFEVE
In words: In vitro binding affinity at rat liver Angiotensin II receptor, type 1 was determined based on displacement of [125I]-Ang II. On the technique in general: In a radioligand displacement assay an active substance lowers the binding of a labelled ligand.

Test [3] addresses T2, Type-1 angiotensin II receptor B (Rattus norvegicus) (UniProt P29089).
T2 sequence (whole entry): T1 sequence (P29089 whole entry)
In words: In vitro binding affinity at rat liver Angiotensin II receptor, type 1 was determined based on displacement of [125I]-Ang II; no affinity.

Activity calls are given as the source filed them. No cut-off for these calls is given here. *1 amine or outer side, *2 acyl side, *3 side chain or, on linkers, in order; H or OH if unused. Where a SMILES comes first, the peptide text is derived from it. Bridges are numbered along the chain shown (N, C = ends). [ ]: non-standard residue; d: D form. X1 = O=C([C@H](CC/C=C\[*:3])N[*:1])[*:2]; X2 = O=C([C@H](CC/C=C/[*:3])N[*:1])[*:2]; hCys = N[C@@H](CCS)C(=O)O

Turning to `CC[C@H](C)[C@H](NC(=O)[C@H](Cc1ccc(O)cc1)NC(=O)[C@@H](NC(=O)[C@H](CCCNC(=N)N)NC(=O)[C@@H](N)CC(=O)O)C(C)C)C(=O)N[C@@H](Cc1cnc[nH]1)C(=O)N1CCC[C@H]1C(=O)N[C@@H](Cc1ccccc1)C(=O)O` [ANGIOTENSIN II], in test [1], the EC50 was 1.4 nM.
As to `NC(N)=NCCC[C@H](NC(=O)[C@@H](N)CC(=O)O)C(=O)N[C@H]1CS/C=C/CC[C@@H](C(=O)N[C@@H](Cc2cnc[nH]2)C(=O)N2CCC[C@H]2C(=O)N[C@@H](Cc2ccccc2)C(=O)O)NC(=O)[C@H](Cc2ccc(O)cc2)NC1=O` (H-DRCY[X2]HPF-OH; thioether 3-5), affinity in test [2] was put at a Ki of 1.7 nM. That is a single-digit nanomolar value.
On to `NC(N)=NCCC[C@H](NC(=O)[C@@H](N)CC(=O)O)C(=O)N[C@H]1CS/C=C/CC[C@@H](C(=O)N[C@@H](Cc2c[nH]cn2)C(=O)N2CCC[C@H]2C(=O)N[C@@H](Cc2ccccc2)C(=O)O)NC(=O)[C@H](Cc2ccc(O)cc2)NC1=O` (H-DRCY[X2]HPF-OH; thioether 3-5), for which the EC50 in test [1] came to 16.1 nM. In other words, the double-digit nanomolar range.
As for `NC(N)=NCCC[C@H](NC(=O)[C@@H](N)CC(=O)O)C(=O)N[C@H]1CS/C=C\CC[C@@H](C(=O)N[C@@H](Cc2c[nH]cn2)C(=O)N2CCC[C@H]2C(=O)N[C@@H](Cc2ccccc2)C(=O)O)NC(=O)[C@H](Cc2ccc(O)cc2)NC1=O` (H-DRCY[X1]HPF-OH; thioether 3-5), the EC50 in test [1] stood at 26 nM.
As to `CC(C)[C@H](NC(=O)[C@H](CCCN=C(N)N)NC(=O)[C@@H](N)CC(=O)O)C(=O)N[C@@H](Cc1ccc(O)cc1)C(=O)N[C@H]1CC/C=C/SC[C@@H](C(=O)N[C@@H](Cc2ccccc2)C(=O)O)NC(=O)[C@H](Cc2c[nH]cn2)NC1=O` (H-DRVY[X2]HCF-OH; thioether 5-7), the NA entry in test [3] is “inactive”.
With `NC(N)=NCCC[C@H](NC(=O)[C@@H](N)CC(=O)O)C(=O)N[C@H]1CS/C=C\CC[C@@H](C(=O)N[C@@H](Cc2cnc[nH]2)C(=O)N2CCC[C@H]2C(=O)N[C@@H](Cc2ccccc2)C(=O)O)NC(=O)[C@H](Cc2ccc(O)cc2)NC1=O` (H-DRCY[X1]HPF-OH; thioether 3-5), affinity in test [2] was put at a Ki of 1.7 nM.
On to `CC(C)[C@H](NC(=O)[C@H](CCCN=C(N)N)NC(=O)[C@@H](N)CC(=O)O)C(=O)N[C@@H](Cc1ccc(O)cc1)C(=O)N[C@H]1CC/C=C\SC[C@@H](C(=O)N[C@@H](Cc2ccccc2)C(=O)O)NC(=O)[C@H](Cc2c[nH]cn2)NC1=O` (H-DRVY[X1]HCF-OH; thioether 5-7), for which the NA result in test [3] was “inactive”.
In the case of `NC(N)=NCCC[C@H](NC(=O)[C@@H](N)CC(=O)O)C(=O)N[C@H]1CCSSCC[C@@H](C(=O)N[C@@H](Cc2c[nH]cn2)C(=O)N2CCC[C@H]2C(=O)N[C@@H](Cc2ccccc2)C(=O)O)NC(=O)[C@H](Cc2ccc(O)cc2)NC1=O` (H-DR[hCys]Y[hCys]HPF-OH; disulfide 3-5), the inhibitory constant (Ki) in test [2] turned out to be 0.23 nM.
